Assay results taken from PubChem BioAssay (NCI).
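How tested: cells in 96-well plates exposed to compound for 48 hours at five concentrations. GI50 = concentration required for 50% inhibition of growth. TGI: total growth inhibition.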

Columns and labels:
Test in all cases: inhibition of tumour cell growth, NCI panel, 48 h
EKVX NSCLC = tested on: EKVX NSCLC
MDA-MB-231 breast = tested on: MDA-MB-231 breast
OVCAR-8 ovarian = tested on: OVCAR-8 ovarian
NCI-H226 lung = tested on: NCI-H226 lung
SF-539 CNS = tested on: SF-539 CNS
COLO 205 colon = tested on: COLO 205 colon
SN12C renal = tested on: SN12C renal
ACHN renal = tested on: ACHN renal
HT29 colon = tested on: HT29 colon
786-0 renal = tested on: 786-0 renal
SNB-19 CNS = tested on: SNB-19 CNS
NCI-H522 lung = tested on: NCI-H522 lung
OVCAR-4 ovarian = tested on: OVCAR-4 ovarian
HOP-92 NSCLC = tested on: HOP-92 NSCLC
CCRF-CEM leukemia = tested on: CCRF-CEM leukemia
CAKI-1 renal = tested on: CAKI-1 renal
NCI/ADR-RES ovarian = tested on: NCI/ADR-RES ovarian
HCC-2998 colon = tested on: HCC-2998 colon
A498 renal = tested on: A498 renal
DU-145 prostate = tested on: DU-145 prostate
U251 CNS = tested on: U251 CNS
MDA-MB-435 = tested on: MDA-MB-435
HCT-116 colon = tested on: HCT-116 colon
NCI-H460 lung = tested on: NCI-H460 lung
SK-OV-3 ovarian = tested on: SK-OV-3 ovarian
OVCAR-3 ovarian = tested on: OVCAR-3 ovarian
OVCAR-5 ovarian = tested on: OVCAR-5 ovarian
HOP-62 NSCLC = tested on: HOP-62 NSCLC
K-562 leukemia = tested on: K-562 leukemia
SW-620 colon = tested on: SW-620 colon
LOX IMVI melanoma = tested on: LOX IMVI melanoma
IGROV1 ovarian = tested on: IGROV1 ovarian
TK-10 renal = tested on: TK-10 renal
KM12 colon = tested on: KM12 colon
MOLT-4 leukemia = tested on: MOLT-4 leukemia
HL-60(TB) leukemia = tested on: HL-60(TB) leukemia
RXF 393 renal = tested on: RXF 393 renal
RPMI-8226 leukemia = tested on: RPMI-8226 leukemia
HS 578T breast = tested on: HS 578T breast
PC-3 prostate = tested on: PC-3 prostate
SK-MEL-28 melanoma = tested on: SK-MEL-28 melanoma
MALME-3M melanoma = tested on: MALME-3M melanoma
BT-549 breast = tested on: BT-549 breast
SK-MEL-5 melanoma = tested on: SK-MEL-5 melanoma
UACC-62 melanoma = tested on: UACC-62 melanoma
MCF7 breast = tested on: MCF7 breast
UACC-257 melanoma = tested on: UACC-257 melanoma
HCT-15 colon = tested on: HCT-15 colon
T-47D breast = tested on: T-47D breast
A549 NSCLC = tested on: A549 NSCLC
SR leukemia = tested on: SR leukemia
NCI-H23 lung = tested on: NCI-H23 lung
SF-295 CNS = tested on: SF-295 CNS
UO-31 renal = tested on: UO-31 renal
SF-268 CNS = tested on: SF-268 CNS
M14 melanoma = tested on: M14 melanoma
SNB-75 CNS = tested on: SNB-75 CNS
SK-MEL-2 melanoma = tested on: SK-MEL-2 melanoma

For `O=C(/C=C\Sc1ccccn1)c1cccc(Br)c1`, the GI50 (EKVX NSCLC) was 19.3 µM, the TGI (EKVX NSCLC) was 35.7 µM and the GI50 (MDA-MB-231 breast) was 2.35 µM. For the same compound, the TGI (MDA-MB-231 breast) was 5.96 µM, the GI50 (OVCAR-8 ovarian) was 3.53 µM and the TGI (OVCAR-8 ovarian) was > 100 µM. The GI50 (NCI-H226 lung) was 2.32 µM, the TGI (NCI-H226 lung) was 5.46 µM and the GI50 (SF-539 CNS) was 8.15 µM. For the same compound, the TGI (SF-539 CNS) was 25 µM, the GI50 (COLO 205 colon) was 5.27 µM and the TGI (COLO 205 colon) was > 100 µM. The GI50 (SN12C renal) was 10.2 µM, the TGI (SN12C renal) was 24.3 µM and the GI50 (ACHN renal) was 1.65 µM. For the same compound, the TGI (ACHN renal) was 3 µM, the GI50 (HT29 colon) was 3.46 µM and the TGI (HT29 colon) was > 100 µM. It also gave a GI50 (786-0 renal) of 2.67 µM, a TGI (786-0 renal) of 6.48 µM and a GI50 (SNB-19 CNS) of 39.1 µM. For the same compound, the TGI (SNB-19 CNS) was > 100 µM, the GI50 (NCI-H522 lung) was 2.28 µM and the TGI (NCI-H522 lung) was 5.84 µM. The GI50 (OVCAR-4 ovarian) was 5.71 µM, the TGI (OVCAR-4 ovarian) was > 100 µM and the GI50 (HOP-92 NSCLC) was 2.64 µM. For the same compound, the TGI (HOP-92 NSCLC) was 7.85 µM, the GI50 (CCRF-CEM leukemia) was 3 µM and the TGI (CCRF-CEM leukemia) was > 100 µM. It also gave a GI50 (CAKI-1 renal) of 3.99 µM, a TGI (CAKI-1 renal) of 17.2 µM and a GI50 (NCI/ADR-RES ovarian) of 8.8 µM. For the same compound, the TGI (NCI/ADR-RES ovarian) was > 100 µM, the GI50 (HCC-2998 colon) was 3.9 µM and the TGI (HCC-2998 colon) was 15 µM. For the same compound, the GI50 (A498 renal) was 19.5 µM, the TGI (A498 renal) was 36.5 µM and the GI50 (DU-145 prostate) was 16.3 µM. The TGI (DU-145 prostate) was 30.7 µM, the GI50 (U251 CNS) was 10.2 µM and the TGI (U251 CNS) was 21.8 µM. It also gave a GI50 (MDA-MB-435) of 9.12 µM, a TGI (MDA-MB-435) of 77.9 µM and a GI50 (HCT-116 colon) of 1.95 µM. For the same compound, the TGI (HCT-116 colon) was 3.85 µM, the GI50 (NCI-H460 lung) was 9.41 µM and the TGI (NCI-H460 lung) was 29.6 µM. The GI50 (SK-OV-3 ovarian) was > 100 µM, the TGI (SK-OV-3 ovarian) was > 100 µM and the GI50 (OVCAR-3 ovarian) was 5.54 µM. The TGI (OVCAR-3 ovarian) was 24.2 µM, the GI50 (OVCAR-5 ovarian) was 15 µM and the TGI (OVCAR-5 ovarian) was 29.5 µM. The GI50 (HOP-62 NSCLC) was 17.4 µM, the TGI (HOP-62 NSCLC) was 33.7 µM and the GI50 (K-562 leukemia) was 2.23 µM. It also gave a TGI (K-562 leukemia) of 6.63 µM, a GI50 (SW-620 colon) of 2.82 µM and a TGI (SW-620 colon) of 8.41 µM. It also gave a GI50 (LOX IMVI melanoma) of 1.69 µM, a TGI (LOX IMVI melanoma) of 3.12 µM and a GI50 (IGROV1 ovarian) of 16.5 µM. It also gave a TGI (IGROV1 ovarian) of 50.4 µM, a GI50 (TK-10 renal) of 3.25 µM and a TGI (TK-10 renal) of 12.2 µM. The GI50 (KM12 colon) was 13.4 µM, the TGI (KM12 colon) was 28.8 µM and the GI50 (MOLT-4 leukemia) was 1.6 µM. It also gave a TGI (MOLT-4 leukemia) of 4.23 µM, a GI50 (HL-60(TB) leukemia) of 2.25 µM and a TGI (HL-60(TB) leukemia) of 6.32 µM. For the same compound, the GI50 (RXF 393 renal) was 2.64 µM, the TGI (RXF 393 renal) was 8.62 µM and the GI50 (RPMI-8226 leukemia) was 0.0787 µM. The TGI (RPMI-8226 leukemia) was > 100 µM, the GI50 (HS 578T breast) was 19.5 µM and the TGI (HS 578T breast) was 83.3 µM. The GI50 (PC-3 prostate) was 7.68 µM, the TGI (PC-3 prostate) was 22.5 µM and the GI50 (SK-MEL-28 melanoma) was 8.65 µM. The TGI (SK-MEL-28 melanoma) was > 100 µM, the GI50 (MALME-3M melanoma) was 2.83 µM and the TGI (MALME-3M melanoma) was 8.97 µM. The GI50 (BT-549 breast) was 7.29 µM, the TGI (BT-549 breast) was 32 µM and the GI50 (SK-MEL-5 melanoma) was 14.1 µM. It also gave a TGI (SK-MEL-5 melanoma) of 28 µM, a GI50 (UACC-62 melanoma) of 11.7 µM and a TGI (UACC-62 melanoma) of 24.5 µM. The GI50 (MCF7 breast) was 1.77 µM, the TGI (MCF7 breast) was 6.18 µM and the GI50 (UACC-257 melanoma) was 21.2 µM. For the same compound, the TGI (UACC-257 melanoma) was 43.4 µM, the GI50 (HCT-15 colon) was 1.4 µM and the TGI (HCT-15 colon) was 3.23 µM. For the same compound, the GI50 (T-47D breast) was 7.54 µM, the TGI (T-47D breast) was > 100 µM and the GI50 (A549 NSCLC) was 23 µM. For the same compound, the TGI (A549 NSCLC) was 80.3 µM, the GI50 (SR leukemia) was 1.68 µM and the TGI (SR leukemia) was 3.79 µM. The GI50 (NCI-H23 lung) was 10.8 µM, the TGI (NCI-H23 lung) was 25.1 µM and the GI50 (SF-295 CNS) was 16 µM. The TGI (SF-295 CNS) was 39.6 µM, the GI50 (UO-31 renal) was 5.15 µM and the TGI (UO-31 renal) was 23.1 µM. It also gave a GI50 (SF-268 CNS) of 6.53 µM, a TGI (SF-268 CNS) of 26.4 µM and a GI50 (M14 melanoma) of 15 µM. The TGI (M14 melanoma) was 43.4 µM.
For `O=C(Cc1ccccc1CCO)NCCc1ccccc1`, the TGI (EKVX NSCLC) was > 100 µM, the TGI (MDA-MB-231 breast) was > 100 µM and the TGI (OVCAR-8 ovarian) was > 100 µM. For the same compound, the TGI (NCI-H226 lung) was > 100 µM, the TGI (SF-539 CNS) was > 100 µM and the TGI (COLO 205 colon) was > 100 µM. The TGI (SN12C renal) was > 100 µM, the TGI (ACHN renal) was > 100 µM and the TGI (HT29 colon) was > 100 µM. For the same compound, the TGI (786-0 renal) was > 100 µM, the TGI (SNB-19 CNS) was > 100 µM and the TGI (NCI-H522 lung) was > 100 µM. For the same compound, the TGI (OVCAR-4 ovarian) was > 100 µM, the TGI (SNB-75 CNS) was > 100 µM and the TGI (HOP-92 NSCLC) was > 100 µM. For the same compound, the TGI (CCRF-CEM leukemia) was > 100 µM, the TGI (SK-MEL-2 melanoma) was > 100 µM and the TGI (CAKI-1 renal) was > 100 µM. The TGI (NCI/ADR-RES ovarian) was > 100 µM, the TGI (HCC-2998 colon) was > 100 µM and the TGI (A498 renal) was > 100 µM. The TGI (DU-145 prostate) was > 100 µM, the TGI (U251 CNS) was > 100 µM and the TGI (MDA-MB-435) was > 100 µM. The TGI (HCT-116 colon) was > 100 µM, the TGI (NCI-H460 lung) was > 100 µM and the TGI (SK-OV-3 ovarian) was > 100 µM. The TGI (OVCAR-3 ovarian) was > 100 µM, the TGI (OVCAR-5 ovarian) was > 100 µM and the TGI (HOP-62 NSCLC) was > 100 µM. For the same compound, the TGI (K-562 leukemia) was > 100 µM, the TGI (SW-620 colon) was > 100 µM and the TGI (IGROV1 ovarian) was > 100 µM. For the same compound, the TGI (TK-10 renal) was > 100 µM, the TGI (KM12 colon) was > 100 µM and the TGI (MOLT-4 leukemia) was > 100 µM. For the same compound, the TGI (HL-60(TB) leukemia) was > 100 µM, the TGI (RXF 393 renal) was > 100 µM and the TGI (RPMI-8226 leukemia) was > 100 µM. The TGI (HS 578T breast) was > 100 µM, the TGI (PC-3 prostate) was > 100 µM and the TGI (SK-MEL-28 melanoma) was > 100 µM. For the same compound, the TGI (BT-549 breast) was > 100 µM, the TGI (SK-MEL-5 melanoma) was > 100 µM and the TGI (UACC-62 melanoma) was > 100 µM. The TGI (MCF7 breast) was > 100 µM, the TGI (UACC-257 melanoma) was > 100 µM and the TGI (HCT-15 colon) was > 100 µM. The TGI (T-47D breast) was > 100 µM, the TGI (A549 NSCLC) was > 100 µM and the TGI (SR leukemia) was > 100 µM. The TGI (NCI-H23 lung) was > 100 µM, the TGI (SF-295 CNS) was > 100 µM and the TGI (UO-31 renal) was > 100 µM. For the same compound, the TGI (SF-268 CNS) was > 100 µM and the TGI (M14 melanoma) was > 100 µM.
